Each structure is given as a SMILES string. “Also recorded” adds a separate entry of the source.

In data set [1] the test system is S. mutans (ATCC 700610, UA159). As to the kind of experiment: MIC and MBC by serial microdilution. The class given is cell-based, Streptococcus mutans. The following applies: for MIC and MBC relative to QADM: compared with QADM. The method, then: MIC and MBC were measured using S. mutans (ATCC 700610, UA159, American Type Culture, Manassas, Va.). S. mutans is a cariogenic, aerotolerant anaerobic bacterium and the primary causative agent of dental caries (Loesche 1986). MIC and MBC were determined via serial microdilution assays (Imazato S et al. 2006; Huang L et al. 2011). Unpolymerized DMAHM or DMADM monomer was dissolved in brain heart infusion (BHI) broth (BD, Franklin Lakes, N.J.) to give a final concentration of 200 mg/mL. From these starting solutions, serial two fold dilutions were made into 1 mL volumes of BHI broth. 15 μL of stock S. mutans was added to 15 mL of BHI broth with 0.2% sucrose and incubated at 37° C. with 5% CO2. Overnight cultures of S. mutans were adjusted to 2×10^6 CFU/mL with BHI broth, and 50 μL of inocula was added to each well of a 96-well plate containing 50 μL of a series of antibacterial monomer dilution broths. BHI broth with 1×10^6 CFU/mL bacteria suspension without antibacterial agent served as negative control. Chlorhexidine diacetate (CHX) (Sigma, St. Louis, Mo.) served as positive control. The previously-synthesized QADM (Antonucci J M et al. 2012; Cheng L et al. 2012a) served as an antibacterial monomer control. After incubation at 37° C. in 5% CO2 for 48 h, the wells were read for turbidity, referenced by the negative and positive control wells. MIC was determined as the endpoint (the well with the lowest antibacterial agent concentration) where no turbidity could be detected with respect to the controls (Huang L et al. 2011). To determine MBC, an aliquot of 50 μL from each well without turbidity was inoculated on BHI agar plates and incubated at 37° C. in 5% CO2 for 48 h. MBC was determined as the lowest concentration of antibacterial agent that produced no colonies on the plate. The tests were performed in triplicate (Huang L et al. 2011).
The use of S. mutans (ATCC 700610, American Type Culture, Manassas, Va.) was approved by the University of Maryland. S. mutans is a cariogenic, aerotolerant anaerobic bacterium and the primary causative agent of dental caries (Deng et al. 2004). MIC and MBC were determined via serial microdilution assays (Imazato et al. 2006; Huang et al. 2011). Unpolymerized DMAHM or DMADDM monomer was dissolved in brain heart infusion (BHI) broth (BD, Franklin Lakes, N.J.) to a concentration of 200 mg/mL. From these starting solutions, serial two fold dilutions were made into 1 mL volumes of BHI broth. […] The wells were read for turbidity after incubation at 37° C. in 5% CO2 for 48 h, referenced by the negative and positive control wells. MIC was defined as the endpoint (the well with the lowest antibacterial agent concentration) where no turbidity could be detected with respect to the controls (Huang et al. 2011). […]
For orientation: Broth dilution looks for growth in wells or tubes with falling amounts of substance.

Data set [2] concerns Human gingival fibroblasts (HGF). The class given is cell-based. Particulars: MTT. The method, then:
Human gingival fibroblasts (HGF, ScienCell) were cultured in a fibroblast medium (FM). […] Then, HGF were seeded in 96-well plates at 5,000 cells per well. […] After 4 h, the unreacted dye was removed and 150 μL of dimethyl sulfoxide was added. Absorbance was measured via the microplate reader at 492 nm. […] Cells were also live/dead stained (Molecular Probes) and examined with fluorescence microscopy (TE2000-S, Nikon) as shown in FIG. 15B.

Data set [3] relates to mature biofilms (48 hours). The data set is described as follows: Mature biofilm (48 hours) CFU, antibacterial monomers in primer and adhesive. In kind it is cell-based. Particulars: 10% mass fraction in primer and adhesive (P&A control). On the procedure: FIG. 29. Effect of antibacterial monomers from Table 1, with chain length (CL) of 3, 6, 9, 12, 16 and 18, on mature biofilms (48 hours). Each monomer was mixed into the primer and adhesive control (P&A control) at 10% mass fraction (mean+−sd; n=6). […] CL=16 reduced the biofilm CFU by 4 orders of magnitude, compared to control.
FIG. 31. Effect of mass fraction of the antibacterial monomer DMAHDM (with chain length of 16) on mature biofilms (48 hours) (mean+−sd; n=6). […] DMAHDM at 10% mass fraction reduced the biofilm CFU by nearly 4 orders of magnitude, compared to control.

As for `C=C(C)C(=O)OCC[N+](C)(C)CCCCCCCCCCCC.[Br-]` [DMADDM, dimethylamino dodecyl methacrylate], the “MIC and MBC relative to those of DMAHM” value in data set [1] (S. mutans, compared with DMAHM) was “more than two orders of magnitude lower; also recorded: three orders of magnitude lower”. Moreover, the “MIC and MBC relative to QADM” value in data set [1] (S. mutans) is “four orders of magnitude lower”. The “Cytotoxicity compared with BisGMA” value in data set [2] is reported as “less cytotoxic”. For `C=C(C)C(=O)OCC[N+](C)(C)CCCCCCCCCCCCCCCC.[Br-]` [DMAHDM, dimethylamino hexadecyl methacrylate], the “MBC and MIC potency relative to chain length 12” value in data set [1] (compared with chain length 12 monomer) is reported as “an order of magnitude more potent”. In data set [3], the “Reduction of mature biofilm CFU compared to control” value was 4 orders of magnitude. For the compound `C=C(C)C(=O)OCC[N+](C)(C)CCCCCC.[Br-]` [DMAHM], the “MIC and MBC relative to QADM” value in data set [1] (S. mutans) is “a lower concentration, by an order of magnitude”. As for `C=C(C)C(=O)OCCCCCCCCCCCC[n+]1ccccc1.[Br-]` [MDPB, reference compound], the “Cytotoxicity compared with BisGMA” value in data set [2] is reported as “less cytotoxic”.

The record behind these values is patent US9937104B2, “Nanostructured antibacterial and remineralizing dental bonding agents and dental bonding systems” (UNIVERSITY OF MARYLAND, BALTIMORE, priority 2012, dated 2018).
